The subject of experiment [1] is ERK1/2 phosphorylation in BRAF^V600E primary human xenograft tumors. Put plainly: Pharmacodynamic ERK1/2 phosphorylation immunoblot in primary human xenograft tumors. Particulars: 100 mg/kg, 1 or 8 h following the last dose (days 21-24). It is filed as in vivo, mice. How it is done: In time course pharmacodynamic studies, mice were treated with 100 mg/kg GDC-0879 and scarified at 1 or 8 h following the last dose (days 21-24). Immunoblots of phosphorylated and total ERK1/2 are shown. […] Total ERK1/2 expression was examined in all samples as a loading control.
(Immunoblotting shows a protein as a band on a membrane.)

Experiment [2] relates to Venus-C-RAF / CFP-K-RAS in HEK293T cells. Put plainly: C-RAF plasma membrane translocation, live cell confocal imaging. It is filed as cell-based. Set-up: dose or concentration left out as unconfirmed. From the text: Aliquots of the membrane and cytosolic fractions were immunoblotted with the indicated antibodies. (B) HEK293T cells were transiently transfected with Venus-C-RAF (green), CFP-K-RAS (red) and mCherry-H2B (blue).

In experiment [3] the test system is pERK in BRAF V600E cells expressing EGFR. Put plainly: pERK MSD assay, basal and EGF-stimulated. It is filed as cell-based. Particulars: serum starved, -EGF or +EGF. How it is done: (A) Table of genotype and EGFR levels among lines tested. (B) Measurement of basal and stimulated pERK levels: cells were treated with […] compound in serum free media for 1 hour. For stimulation 20 ng/ml EGF was added for 5 min before cells were lysed. Lysates were transferred to an MSD plate where phospho- and total ERK levels were measured. (C) pERK IC50 data are plotted for the two Raf inhibitors (CHR-265, 1-methyl-5-[[2-[5-(trifluoromethyl)-1H-imidazol-2-yl]-4-pyridinyl]oxy]-N-[4-(trifluoromethyl)phenyl]-1H-Benzimidazol-2-amine and GDC-0879) under basal and EGF-stimulated conditions.
FIG. 29 summarizes certain RAF inhibitor (GDC-0879, PLX-4720 and “Raf inh a” which is 2,6-difluoro-N-(3-methoxy-1H-pyrazolo[3,4-b]pyridin-5-yl)-3-(propylsulfonamido)benzamide) potencies for blocking cellular pERK induction in response to EGF stimulation.

In experiment [4] the test system is C-RAF in A375 (B-RAFV600E) cells transfected with KRASG12D. The experiment is described as follows: C-RAF immunoprecipitation: kinase activity and B-RAF heterodimerization. In kind it is cell-based. Details: dose or concentration left out as unconfirmed. Particulars: A375 transfected with mutant KRASG12D; dosed at 0.1, 1. How it is done: FIGS. 20A, B, C and D depict the importance of the role of active Ras plays in C-RAF activation and phospho-MEK induction by RAF inhibitors. (A) A375 (B-RAFV600E) cells were treated with GDC-0879 or PLX4720 for 1 hour and lysed in hypotonic buffer for membrane fractionation. Both membrane (P100) and cytosolic (S100) fractions were immunoblotted with the indicated antibodies. (B) MeWo cells were transiently transfected with KRASWT or KRASSI7N, treated with GDC-0879 or PLX4720 (at […]) for 1 hour and fractionated into membrane (P100) and cytosolic (S100) fractions. Aliquots of the membrane and cytosolic fractions were immunoblotted with anti-phospho- and anti-total MEK antibodies. (C) RAS-GTP levels were measured from lysates of MeWo (RAS/RAFWT), A375 (B-RAFV600E) and H2122 (KRASMT) cells with a Ras-GTP ELISA protocol using immobilized C-RAF-RBD as bait for capturing RAS-GTP. Relative luminescent units represent RAS detection of an anti-RAS antibody bound to the RBD. RAS-GTP H2122>>Mewo>A375. […] C-RAF was immunoprecipitated from control and inhibitor-treated cells and assayed for protein activity and B-RAF heterodimerization. Total C-RAF levels shown by WB in the immunoprecipitate indicate loading for each lane.

Another experiment has as its system WT Raf isoforms. The experiment is described as follows: Biochemical enzyme assay at physiological [ATP]. The source says:
FIG. 1 depicts Biochemical enzyme assay data.

Experiment [5] relates to phospho-MEK in B-RAF V600E mutant cell lines. The experiment is described as follows: Phospho-MEK MSD assay, basal and EGF-stimulated. In kind it is cell-based. The settings on record: basal and EGF-stimulated (20 ng/ml EGF); compared with PLX4720. How it is done:
(A) Cells were treated with […] compound in serum free media for 1 hour. For stimulation 20 ng/ml EGF was added for 5 min before cells were lysed. Lysates were transferred to an MSD plate where phospho- and total MEK levels were measured. […] Cells were dosed with indicated inhibitors, either alone or in combination in the presence of 20 ng/ml EGF in the media.

Experiment [6] has as its system pMEK levels in non-B-Raf^V600E lines. Put plainly: pMEK levels / Raf/MEK/ERK pathway induction by Raf inhibitors. It is filed as cell-based.
A further experiment addresses B-Raf^V600E (Homo sapiens, UniProt P15056, V600E). The settings on record: physiological [ATP].
Experiment [7] concerns patient-derived melanoma and non-small cell lung cancer tumor models. Put plainly: Primary human tumor xenograft models, time to tumor doubling. It is filed as in vivo, mice. Particulars: 100 mg/kg daily. How it is done:
FIG. 8A depicts the duration and extent of BRAF pathway inhibition determines B-Raf inhibitor, GDC-0879 efficacy in primary human tumor xenograft models. A Kaplan-Meier plot showing time to tumor doubling for patient-derived melanoma and non-small cell lung cancer tumor models treated daily with 100 mg/kg GDC-0879 or vehicle. Genotypes for BRAF, N-ras and K-ras are indicated.
The Ras GTPase family controls numerous downstream signaling cascades in response to signals that regulate cellular processes including proliferation and survival. While Ras is one of the most prevalent targets for gain-of-function mutations in human tumors, questions remain regarding how the Ras effector pathway functions in mutant K-ras-driven tumorigenesis. Since an important function of K-ras involves B-Raf activation within the canonical MAPK signaling pathway, we initiated a study to determine B-Raf's role in the context of mutant K-ras-driven tumor promotion and maintenance. […] See, FIG. 8A, showing time to tumor doubling.
Background: Xenograft models place foreign cells or tissue in a host animal.

B-Raf^V600E, sequence (P15056 whole entry V600E): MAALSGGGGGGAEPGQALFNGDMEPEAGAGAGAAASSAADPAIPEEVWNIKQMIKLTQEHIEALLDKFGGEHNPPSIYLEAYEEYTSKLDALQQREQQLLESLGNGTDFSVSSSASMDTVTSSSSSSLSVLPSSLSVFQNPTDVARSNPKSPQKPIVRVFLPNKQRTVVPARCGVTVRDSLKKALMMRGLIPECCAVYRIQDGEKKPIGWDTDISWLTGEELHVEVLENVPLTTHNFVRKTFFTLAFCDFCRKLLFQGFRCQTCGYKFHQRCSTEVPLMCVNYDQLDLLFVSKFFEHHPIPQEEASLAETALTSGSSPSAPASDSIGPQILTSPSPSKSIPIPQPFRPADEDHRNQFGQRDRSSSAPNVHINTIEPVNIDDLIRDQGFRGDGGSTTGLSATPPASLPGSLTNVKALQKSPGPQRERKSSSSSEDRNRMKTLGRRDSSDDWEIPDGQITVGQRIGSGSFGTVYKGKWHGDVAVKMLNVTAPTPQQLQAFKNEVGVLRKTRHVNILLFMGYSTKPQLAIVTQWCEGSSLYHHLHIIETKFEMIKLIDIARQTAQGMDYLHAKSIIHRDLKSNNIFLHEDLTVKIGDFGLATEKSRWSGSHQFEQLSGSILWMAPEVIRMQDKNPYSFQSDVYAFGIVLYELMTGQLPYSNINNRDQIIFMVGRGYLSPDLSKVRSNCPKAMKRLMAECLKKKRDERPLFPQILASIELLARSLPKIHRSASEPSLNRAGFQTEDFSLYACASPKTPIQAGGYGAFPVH

For the compound `OCCn1cc(-c2ccc3c(c2)CC/C3=N\O)c(-c2ccncc2)n1` [GDC-0879, 2-{4-[(1E)-1-(hydroxyimino)-2,3-dihydro-1H-inden-5-yl]-3-(pyridine-4-yl)-1H-pyrazol-1-yl}ethan-1-ol], the “ERK1/2 phosphorylation in tumors” value in [1] is listed as “down-regulated ERK1/2 phosphorylation”. The “Venus-tagged C-RAF membrane translocation” value in experiment [2] is listed as “co-localizes with CFP-KRAS on the plasma membrane”. The “blocking wildtype RAF signaling / selectivity (pERK induction in response to EGF)” value in experiment [3] was “can more efficiently block wildtype RAF signaling”. The “B-RAF:C-RAF heterodimers and C-RAF kinase activation” value in experiment [4] is “induce B-RAF:C-RAF heterodimers and C-RAF kinase activation”. Moreover, the “potency in biochemical enzyme assay” value with WT Raf isoforms and at B-Raf^V600E was “maintains effective potency” each time. Further, the “knocking down phospho-MEK levels” value in experiment [5] is given as “more effective in knocking down phospho-MEK levels”. Moreover, in [6] (after serum stimulation), the “effect on pMEK levels” value is reported as “Inhibitory effects of GDC-0879 predominate”. Further, in experiment [6] (basal conditions), the “effect on pMEK levels / c-Raf” value is given as “bell-shaped curve”. Besides, the “time to tumor doubling / tumor growth” value in [7] (K-ras-mutant non-small cell lung tumors such as LXFA 1041 and LXFA 983) is recorded as “significantly accelerated growth”. In addition, in experiment [7] (MEXF 989, MEXF 276, and MEXF 355 tumors), the “time to tumor doubling / tumor progression” value is given as “statistically significant (P<0.05) delay in tumor progression”.

These data come from patent publication US20150164895A1, “DETERMINING SENSITIVITY OF CELLS TO B-RAF INHIBITOR TREATMENT BY DETECTING KRAS MUTATION AND RTK EXPRESSION LEVELS” (GENENTECH, INC., priority 2009, published 2015).
